Results reported in ChEMBL document CHEMBL1201862, “PubChem BioAssay data set” (2004).
Active and inactive are the calls of the source.

Tests used:
[1] = C. albicans growth with fluconazole, confirmation, fluorescence, retest (AID 2467); assay type: functional, cell-based
[2] = cells; assay type: functional, cell-based
[3] = test system: Streptococcus sp. 'group A'; experiment: growth inhibition of control SK(-) GAS strain, dose response, counter-screen for streptokinase expression inhibitor project, luminescence, kanamycin, BacTiterGlo, confirmation (AID 1900); assay type: functional, organism-based
[4] = cells; assay type: functional, cell-based; remark: listed apart in the source
[5] = test system: Streptococcus; experiment: Group A Streptococcus viability loss, dose response, counter-screen for streptokinase expression inhibitor project, luminescence, BacTiterGlo (AID 1915); assay type: functional, organism-based;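 further: potency for reduction of bacterial viability or growth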
[6] = biological target: ATP-dependent molecular chaperone HSP82 (Candida albicans (strain WO-1) (Yeast), UniProt C4YTQ8); experiment: loss of DOC-induced GRE-beta-galactosidase reporter signal, dose response, Hsp90 inhibitor project, S. cerevisiae, luminescence (AID 2400); assay type: functional, cell-based;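 further: beta-galactosidase luminescence from glucocorticoid response element reporter as proxy for Hsp90 function; inhibitor potency where signal loss means Hsp90 inhibition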
ATP-dependent molecular chaperone HSP82, sequence (C4YTQ8 whole entry): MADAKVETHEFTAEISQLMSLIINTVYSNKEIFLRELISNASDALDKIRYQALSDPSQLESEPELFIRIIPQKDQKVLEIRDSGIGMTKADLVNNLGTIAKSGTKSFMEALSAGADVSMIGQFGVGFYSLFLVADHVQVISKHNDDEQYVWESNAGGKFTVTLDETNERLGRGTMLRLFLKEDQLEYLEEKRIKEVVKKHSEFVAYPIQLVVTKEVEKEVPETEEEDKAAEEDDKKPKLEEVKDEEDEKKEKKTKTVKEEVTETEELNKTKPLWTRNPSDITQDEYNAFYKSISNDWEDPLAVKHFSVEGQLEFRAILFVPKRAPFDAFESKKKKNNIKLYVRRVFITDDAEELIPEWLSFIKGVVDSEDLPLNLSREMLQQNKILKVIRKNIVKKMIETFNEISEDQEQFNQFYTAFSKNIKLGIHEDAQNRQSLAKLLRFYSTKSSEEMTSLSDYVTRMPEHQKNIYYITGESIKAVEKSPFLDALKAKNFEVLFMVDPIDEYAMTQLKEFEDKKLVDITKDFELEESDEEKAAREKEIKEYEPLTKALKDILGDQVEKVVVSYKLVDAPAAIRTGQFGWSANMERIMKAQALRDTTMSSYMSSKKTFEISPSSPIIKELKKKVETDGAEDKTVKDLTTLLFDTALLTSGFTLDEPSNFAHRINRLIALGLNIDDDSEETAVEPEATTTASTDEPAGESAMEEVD

[7] = cytotoxicity in MIN6 insulinoma cells, dose response, cytotoxicity control, cell-based, mouse insulinoma (AID 2122); assay type: functional;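 further: confirmatory high-throughput counterscreen run to flag cytotoxic compounds; mouse MIN-6 beta cells carrying an insulin promoter eGFP reporter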
[8] = insulin promoter down-regulators in MIN6 cells, imaging, high-content screening, mouse beta cells (AID 1628); assay type: functional
[9] = NIH-3T3 fibroblast cytotoxicity, dose response, cytotoxicity control, cell-based, fluorescence, Alamar Blue, secondary assay (AID 2327); assay type: functional;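 further: NIH-3T3 mouse fibroblasts cultured with fluconazole at 8 µg/mL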
[10] = biological target: T1, Serine/threonine-protein phosphatase (Candida dubliniensis (strain CD36 / CBS 7987 / NCPF 3949 / NRRLY-17841) (Yeast), UniProt B9W6M3); experiment: calcineurin pathway inhibitors in yeast reporter, dose response, S. cerevisiae, CDRE-lacZ, luminescence, secondary (AID 2388); assay type: functional, cell-based;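 further: yeast reporter cells carrying a calcineurin-responsive lacZ construct stimulated with calcium chloride; luminescent beta-galactosidase reporter signal in whole cells rather than isolated phosphatase activity; potency for inhibition where a drop in reporter signal means calcineurin blockade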
T1 sequence (B9W6M3 whole entry): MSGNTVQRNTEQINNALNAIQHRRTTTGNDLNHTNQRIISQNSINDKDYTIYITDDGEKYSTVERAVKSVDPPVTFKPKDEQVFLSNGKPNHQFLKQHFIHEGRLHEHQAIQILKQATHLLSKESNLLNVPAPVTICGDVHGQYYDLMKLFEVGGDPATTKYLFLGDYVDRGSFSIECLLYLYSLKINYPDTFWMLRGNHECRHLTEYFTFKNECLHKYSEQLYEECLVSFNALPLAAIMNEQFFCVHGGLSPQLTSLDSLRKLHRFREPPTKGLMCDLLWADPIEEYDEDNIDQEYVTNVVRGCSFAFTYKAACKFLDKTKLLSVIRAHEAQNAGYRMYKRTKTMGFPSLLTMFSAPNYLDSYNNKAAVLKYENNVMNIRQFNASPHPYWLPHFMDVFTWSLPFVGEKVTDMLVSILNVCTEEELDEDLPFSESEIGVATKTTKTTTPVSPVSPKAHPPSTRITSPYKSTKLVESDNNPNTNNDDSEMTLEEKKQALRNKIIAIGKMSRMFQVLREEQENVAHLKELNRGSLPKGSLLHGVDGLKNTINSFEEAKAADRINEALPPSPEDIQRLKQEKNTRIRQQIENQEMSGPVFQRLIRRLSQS

[11] = test system: CHO; experiment: cytotoxicity in TLR9-MyD88 CHO cells, dose response, cytotoxicity control for TLR9-MyD88 binding inhibitor project, cell-based, luminescence (AID 588339); assay type: functional, hamster; conditions: Cricetulus griseus;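 further: CHO cells stably coexpressing TLR9 and MyD88 fusions from primary screen; compound exposure lasted 48 hours before viability readout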
[12] = biological target: Beta Lactamase (Pseudomonas aeruginosa, UniProt Q932Y6); experiment: beta-lactamase reporter inhibitor potency, dose response, artefact control for TLR9-MyD88 binding inhibitor project, BLA reporter cells, FRET fluorescence (AID 588341); assay type: cell-based;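 further: cell based assay in CHO-K1 cells stably expressing beta-lactamase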
Beta Lactamase, sequence (Q932Y6 whole entry): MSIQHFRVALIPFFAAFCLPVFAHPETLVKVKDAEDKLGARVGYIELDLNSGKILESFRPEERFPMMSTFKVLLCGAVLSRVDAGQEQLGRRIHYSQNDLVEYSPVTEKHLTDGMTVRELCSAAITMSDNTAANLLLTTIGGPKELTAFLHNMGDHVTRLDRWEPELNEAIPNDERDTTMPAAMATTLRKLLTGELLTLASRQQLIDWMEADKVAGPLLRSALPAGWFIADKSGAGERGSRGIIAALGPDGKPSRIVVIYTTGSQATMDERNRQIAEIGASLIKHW

[13] = biological target: T2, Protein skinhead-1 (Caenorhabditis elegans, UniProt P34707); assay type: functional
T2 sequence (P34707 whole entry): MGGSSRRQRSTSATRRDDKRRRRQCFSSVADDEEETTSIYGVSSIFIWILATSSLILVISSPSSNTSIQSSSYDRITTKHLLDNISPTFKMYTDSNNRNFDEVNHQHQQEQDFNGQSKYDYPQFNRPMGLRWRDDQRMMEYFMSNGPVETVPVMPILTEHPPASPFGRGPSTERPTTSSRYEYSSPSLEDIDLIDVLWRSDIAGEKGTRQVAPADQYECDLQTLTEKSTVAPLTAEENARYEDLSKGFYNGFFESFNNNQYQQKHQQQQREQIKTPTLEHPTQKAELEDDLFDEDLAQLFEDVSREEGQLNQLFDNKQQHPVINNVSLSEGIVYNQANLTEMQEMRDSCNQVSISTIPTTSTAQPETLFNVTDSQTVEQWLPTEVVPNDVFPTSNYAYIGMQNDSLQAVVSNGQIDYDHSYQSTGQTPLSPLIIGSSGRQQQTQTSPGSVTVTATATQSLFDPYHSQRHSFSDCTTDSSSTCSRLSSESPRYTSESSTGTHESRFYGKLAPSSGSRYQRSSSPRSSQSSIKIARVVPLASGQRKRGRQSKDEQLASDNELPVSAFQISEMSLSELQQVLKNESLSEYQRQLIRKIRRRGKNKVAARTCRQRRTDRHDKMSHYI

[14] = biological target: Voltage-dependent T-type calcium channel subunit alpha-1H (Homo sapiens, UniProt O95180); assay type: functional;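 further: channel activity triggered by adding a high calcium stimulation buffer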
Voltage-dependent T-type calcium channel subunit alpha-1H, sequence (O95180 whole entry): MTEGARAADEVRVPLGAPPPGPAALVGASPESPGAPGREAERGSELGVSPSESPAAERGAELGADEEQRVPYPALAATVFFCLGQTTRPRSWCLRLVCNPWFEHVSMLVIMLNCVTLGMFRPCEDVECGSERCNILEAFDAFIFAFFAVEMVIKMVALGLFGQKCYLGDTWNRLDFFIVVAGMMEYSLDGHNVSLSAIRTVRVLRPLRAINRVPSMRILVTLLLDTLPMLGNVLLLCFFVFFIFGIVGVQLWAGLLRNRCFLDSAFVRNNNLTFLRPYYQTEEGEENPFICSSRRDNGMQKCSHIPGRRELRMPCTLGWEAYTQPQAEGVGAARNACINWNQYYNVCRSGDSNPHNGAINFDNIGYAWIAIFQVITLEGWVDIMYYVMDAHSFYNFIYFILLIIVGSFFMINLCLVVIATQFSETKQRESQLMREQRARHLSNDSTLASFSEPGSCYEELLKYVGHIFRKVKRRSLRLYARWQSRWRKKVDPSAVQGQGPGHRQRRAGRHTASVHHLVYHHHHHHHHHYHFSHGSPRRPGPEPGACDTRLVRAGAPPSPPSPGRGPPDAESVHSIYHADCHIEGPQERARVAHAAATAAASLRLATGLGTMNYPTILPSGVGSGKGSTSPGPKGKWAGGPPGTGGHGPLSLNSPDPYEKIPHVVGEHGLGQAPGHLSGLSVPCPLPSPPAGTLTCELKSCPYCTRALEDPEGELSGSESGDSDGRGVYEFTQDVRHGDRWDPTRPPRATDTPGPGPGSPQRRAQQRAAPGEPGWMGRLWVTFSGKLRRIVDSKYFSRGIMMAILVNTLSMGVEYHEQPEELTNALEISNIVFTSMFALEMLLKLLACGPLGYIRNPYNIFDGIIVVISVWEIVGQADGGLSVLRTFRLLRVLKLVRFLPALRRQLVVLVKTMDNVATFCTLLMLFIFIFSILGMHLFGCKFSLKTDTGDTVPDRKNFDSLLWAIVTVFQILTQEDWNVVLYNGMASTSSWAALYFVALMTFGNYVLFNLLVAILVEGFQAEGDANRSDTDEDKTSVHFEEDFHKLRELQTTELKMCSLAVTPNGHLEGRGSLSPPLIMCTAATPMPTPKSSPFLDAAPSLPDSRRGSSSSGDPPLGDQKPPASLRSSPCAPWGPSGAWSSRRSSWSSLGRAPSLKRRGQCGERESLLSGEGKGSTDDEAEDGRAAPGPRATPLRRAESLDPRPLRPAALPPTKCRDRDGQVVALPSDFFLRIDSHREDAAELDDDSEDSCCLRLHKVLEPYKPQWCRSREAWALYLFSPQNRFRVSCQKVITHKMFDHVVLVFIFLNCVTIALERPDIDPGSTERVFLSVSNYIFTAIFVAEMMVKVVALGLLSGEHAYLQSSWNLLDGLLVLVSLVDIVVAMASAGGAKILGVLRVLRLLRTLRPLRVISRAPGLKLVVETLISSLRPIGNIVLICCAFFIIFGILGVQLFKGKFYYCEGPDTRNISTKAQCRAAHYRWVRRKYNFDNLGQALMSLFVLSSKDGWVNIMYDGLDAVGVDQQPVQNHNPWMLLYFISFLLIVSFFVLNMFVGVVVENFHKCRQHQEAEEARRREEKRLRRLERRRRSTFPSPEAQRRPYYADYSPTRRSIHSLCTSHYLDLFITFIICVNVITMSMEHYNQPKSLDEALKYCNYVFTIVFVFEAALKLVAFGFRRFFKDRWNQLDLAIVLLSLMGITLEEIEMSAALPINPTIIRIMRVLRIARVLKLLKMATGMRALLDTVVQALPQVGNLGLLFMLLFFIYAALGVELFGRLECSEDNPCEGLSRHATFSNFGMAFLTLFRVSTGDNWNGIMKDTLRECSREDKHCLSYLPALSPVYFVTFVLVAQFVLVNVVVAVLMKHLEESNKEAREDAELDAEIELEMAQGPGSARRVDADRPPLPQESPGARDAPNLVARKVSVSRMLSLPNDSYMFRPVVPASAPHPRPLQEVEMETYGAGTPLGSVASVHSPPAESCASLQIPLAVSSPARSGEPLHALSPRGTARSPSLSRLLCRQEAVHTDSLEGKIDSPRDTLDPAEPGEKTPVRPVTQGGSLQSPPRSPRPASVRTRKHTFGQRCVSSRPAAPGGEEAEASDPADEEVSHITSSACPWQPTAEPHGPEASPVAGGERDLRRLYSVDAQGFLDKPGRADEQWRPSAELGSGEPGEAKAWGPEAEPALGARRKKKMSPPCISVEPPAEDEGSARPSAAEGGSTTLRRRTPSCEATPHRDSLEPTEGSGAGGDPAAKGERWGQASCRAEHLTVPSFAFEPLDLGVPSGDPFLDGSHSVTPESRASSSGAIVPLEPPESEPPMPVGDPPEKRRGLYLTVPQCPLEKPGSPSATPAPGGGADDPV

[15] = biological target: T3, Endoribonuclease toxin MazF (Escherichia coli K-12, UniProt P0AE70); experiment: fluorescent RNA oligo signal without MazF, dose response, counter-screen for MazEF activator project, biochemical, fluorescence, single-stranded RNase substrate (AID 588502); assay type: functional
T3 sequence (P0AE70 whole entry): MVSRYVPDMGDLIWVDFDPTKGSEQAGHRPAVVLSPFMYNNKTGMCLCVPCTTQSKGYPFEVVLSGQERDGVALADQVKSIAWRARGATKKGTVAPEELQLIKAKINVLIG

[16] = biological target: T3, Endoribonuclease toxin MazF; experiment: MazF toxin RNase activators, dose response, biochemical, fluorescence, single-stranded RNA substrate, uHTS hits (AID 588481); assay type: functional
[17] = biological target: T4, Sentrin-specific protease 6 (Homo sapiens, UniProt Q9GZR1); experiment: SAR Analysis of small molecule inhibitors of Sentrin-specific protease 6 (SENP6) using a Luminescent assay. [Related pubchem assays (depositor defined):AID2582, AID2599]; assay type: functional
T4 sequence (Q9GZR1 whole entry): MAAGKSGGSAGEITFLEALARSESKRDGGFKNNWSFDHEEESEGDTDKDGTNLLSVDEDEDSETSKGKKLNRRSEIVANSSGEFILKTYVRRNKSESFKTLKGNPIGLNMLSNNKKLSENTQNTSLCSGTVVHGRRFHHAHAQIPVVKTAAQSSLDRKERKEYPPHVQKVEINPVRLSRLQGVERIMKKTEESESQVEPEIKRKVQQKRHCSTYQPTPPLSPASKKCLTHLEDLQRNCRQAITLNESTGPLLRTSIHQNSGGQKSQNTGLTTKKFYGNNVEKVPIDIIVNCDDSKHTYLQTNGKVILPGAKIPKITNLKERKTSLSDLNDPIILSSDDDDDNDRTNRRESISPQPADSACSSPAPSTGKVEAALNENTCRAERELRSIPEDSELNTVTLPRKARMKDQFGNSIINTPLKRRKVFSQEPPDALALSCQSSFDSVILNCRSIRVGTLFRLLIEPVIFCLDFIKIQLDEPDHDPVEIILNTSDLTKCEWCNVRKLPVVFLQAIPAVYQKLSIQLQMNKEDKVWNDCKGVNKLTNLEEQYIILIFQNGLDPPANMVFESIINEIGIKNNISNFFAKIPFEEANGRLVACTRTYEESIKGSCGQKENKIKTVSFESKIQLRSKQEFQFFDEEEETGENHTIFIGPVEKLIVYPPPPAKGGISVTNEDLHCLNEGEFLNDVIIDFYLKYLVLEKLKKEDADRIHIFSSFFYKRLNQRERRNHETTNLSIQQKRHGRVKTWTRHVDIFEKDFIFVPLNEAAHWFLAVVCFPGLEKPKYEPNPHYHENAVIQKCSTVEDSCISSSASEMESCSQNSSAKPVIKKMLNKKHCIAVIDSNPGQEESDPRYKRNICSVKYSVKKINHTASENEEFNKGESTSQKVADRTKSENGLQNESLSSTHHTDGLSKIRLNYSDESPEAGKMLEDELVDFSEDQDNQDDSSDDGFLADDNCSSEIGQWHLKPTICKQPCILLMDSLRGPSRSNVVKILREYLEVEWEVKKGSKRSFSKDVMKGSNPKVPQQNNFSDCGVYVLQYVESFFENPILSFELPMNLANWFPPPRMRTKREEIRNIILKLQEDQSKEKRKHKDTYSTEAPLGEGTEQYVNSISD

[18] = biological target: T5, Sentrin-specific protease 7 (Homo sapiens, UniProt Q9BQF6); experiment: SENP7 protease inhibitors, SAR follow-up, biochemical, luminescence (AID 504497); assay type: functional
T5 sequence (Q9BQF6 whole entry): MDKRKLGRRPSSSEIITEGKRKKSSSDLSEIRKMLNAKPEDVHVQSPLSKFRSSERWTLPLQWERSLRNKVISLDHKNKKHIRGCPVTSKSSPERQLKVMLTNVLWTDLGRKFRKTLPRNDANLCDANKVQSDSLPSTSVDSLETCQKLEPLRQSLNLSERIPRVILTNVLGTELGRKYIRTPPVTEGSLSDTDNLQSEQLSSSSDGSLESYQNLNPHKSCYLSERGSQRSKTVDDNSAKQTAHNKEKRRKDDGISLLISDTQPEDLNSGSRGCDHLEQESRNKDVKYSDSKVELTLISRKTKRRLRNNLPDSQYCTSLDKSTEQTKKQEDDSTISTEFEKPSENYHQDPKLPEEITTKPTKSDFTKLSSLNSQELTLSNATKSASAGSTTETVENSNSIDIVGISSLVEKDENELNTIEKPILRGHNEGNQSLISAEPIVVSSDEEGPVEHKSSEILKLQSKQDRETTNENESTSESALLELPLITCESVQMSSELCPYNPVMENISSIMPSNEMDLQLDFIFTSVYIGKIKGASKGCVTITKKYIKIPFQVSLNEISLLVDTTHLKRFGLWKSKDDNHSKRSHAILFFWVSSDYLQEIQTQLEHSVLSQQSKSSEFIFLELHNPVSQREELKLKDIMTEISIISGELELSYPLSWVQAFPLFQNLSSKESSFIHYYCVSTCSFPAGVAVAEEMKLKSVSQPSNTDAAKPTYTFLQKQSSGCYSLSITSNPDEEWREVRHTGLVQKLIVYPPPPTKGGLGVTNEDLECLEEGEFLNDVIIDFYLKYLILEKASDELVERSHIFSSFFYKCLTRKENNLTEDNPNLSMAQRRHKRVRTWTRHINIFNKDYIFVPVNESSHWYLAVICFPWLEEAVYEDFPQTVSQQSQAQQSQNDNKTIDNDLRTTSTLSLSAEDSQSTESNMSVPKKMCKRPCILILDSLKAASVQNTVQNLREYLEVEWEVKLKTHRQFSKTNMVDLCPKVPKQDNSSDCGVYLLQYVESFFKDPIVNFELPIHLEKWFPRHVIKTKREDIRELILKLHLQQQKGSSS

[19] = biological target: T6, Sentrin-specific protease 8 (Homo sapiens, UniProt Q96LD8); experiment: SENP8 protease inhibitors, SAR follow-up, biochemical, luminescence (AID 504501); assay type: functional
T6 sequence (Q96LD8 whole entry): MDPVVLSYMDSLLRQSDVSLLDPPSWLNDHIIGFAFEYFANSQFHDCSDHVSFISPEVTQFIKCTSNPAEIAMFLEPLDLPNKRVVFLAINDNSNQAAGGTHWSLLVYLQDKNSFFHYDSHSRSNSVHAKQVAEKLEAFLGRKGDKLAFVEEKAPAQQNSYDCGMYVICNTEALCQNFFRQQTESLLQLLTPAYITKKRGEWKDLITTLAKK

[20] = biological target: T7, Caspase-3 (Homo sapiens, UniProt P42574); experiment: SAR Analysis of small molecule inhibitors of Sentrin-specific proteases (SENPs) using a Caspase-3 Selectivity assay. [Related pubchem assays (depositor defined):AID2540, AID2599, AID434973, AID489001]; assay type: functional
T7 sequence (P42574 whole entry): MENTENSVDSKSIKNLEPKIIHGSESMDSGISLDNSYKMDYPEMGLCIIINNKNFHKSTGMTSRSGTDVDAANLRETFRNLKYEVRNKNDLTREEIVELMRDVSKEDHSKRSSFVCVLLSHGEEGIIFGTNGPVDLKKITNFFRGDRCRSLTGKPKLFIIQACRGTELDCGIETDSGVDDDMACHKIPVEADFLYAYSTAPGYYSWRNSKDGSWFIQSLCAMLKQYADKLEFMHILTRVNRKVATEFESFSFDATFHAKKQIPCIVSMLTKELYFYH

[21] = test system: HEK293; experiment: inhibitors of LMP1-driven NF-kB reporter, dose response, cell-based, HEK293, luciferase, cherry-pick (AID 588343); assay type: functional; conditions: Homo sapiens
[22] = inhibitors of firefly luciferase expression or activity, dose response, H4 neuroglioma cells, luminescence (AID 1990); assay type: functional, cell-based
[23] = Luminescence Cell-Based Dose Response HTS to Identify Inhibitors of 5'UTR Stem-Loop Driven Prion Protein mRNA Translation in H4 Neuroglioblastoma Cells. [Related pubchem assays: 1827 (Project Summary), 1813 (Primary HTS)]; assay type: functional
[24] = inhibitors of SNCA 5'UTR-driven reporter translation, confirmation, H4 neuroglioma cells, luminescence (AID 1988); assay type: functional, cell-based

Oc1ccc(N=Nc2ccc3c(c2)OCCO3)c2cccnc12
EC50 [1]: 1.24 µM (active) | EC50 [2]: 5.17 µM (active) | EC50 [3]: 0.352 µM (active) | EC50 [4]: 45.6 µM (active) | EC50 [5]: 1.15 µM (active) | EC50 [6]: 12.8 µM (active) | IC50 [7]: 1.37 µM (active) | IC50 [8]: 2.15 µM (active) | EC50 [9]: 13.7 µM (inconclusive) | EC50 [10]: > 180 µM (inactive)

CCCN1C(=O)/C(=C/c2ccc(N3CCCC3)c(C)c2)NC1=S
IC50 [11]: 32.1 µM (inactive) | IC50 [12]: 6.66 µM (active) | IC50 [13]: > 100 µM (inactive) | EC50 [14]: 3.84 µM (active)

CC(=O)C(=NNc1cc(C)ccc1O)C(C)=O
EC50 [15]: > 99 µM (inactive) | EC50 [16]: > 99 µM (inactive)

Oc1ccccc1-c1nc(-c2ccccc2)no1
IC50 [17]: 1.75 µM (active) | IC50 [18]: 1.55 µM (active) | IC50 [19]: 1.86 µM (active) | IC50 [20]: 1.09 µM (active)

CCCC(=O)Nc1ccc(-c2nc3cc(Cl)ccc3o2)cc1
IC50 [17]: > 99 µM (inactive) | IC50 [18]: > 99 µM (inactive) | IC50 [19]: > 99 µM (inactive) | IC50 [20]: > 99 µM (inactive)

O=C(N/N=C/c1cccs1)c1[nH]nc2c1CCCC2
AC50 [21]: 2.39 µM (active) | EC50 [22]: 8.62 µM (inconclusive) | EC50 [23]: 9.49 µM (active) | EC50 [24]: 8.52 µM (active)

O=C(COc1cccc(Cl)c1)N/N=C\c1cc2ccccc2nc1Cl
EC50 [15]: > 99 µM (inactive) | EC50 [16]: > 99 µM (inactive)
